Counter-ions that a name gives are not always drawn.
melting point | Compound
256 to 258 °C | Cl.O=c1c2cc(-c3ccc(F)cc3F)oc2ccn1-c1ccc2c(cnn2CCN2CCCC2)c1
120 to 122 °C | Cl.N#Cc1cc(F)ccc1-c1cc2c(=O)n(-c3ccc4c(cnn4CCN4CCCC4)c3)ccc2o1
188 to 190 °C | O=c1c2cc(-c3cccnc3)oc2ccn1-c1ccc2c(cnn2CCN2CCCC2)c1 (as salt: hydrochloride) [Example 22, 2(Pyridin-3-yl)-5-(1-(2-(pyrrolidin-1-yl)ethyl)-1H-indazol-5-yl)furo[3,2-c]pyridin-4(5H)-one dihydrochloride]
266 to 268 °C | O=c1c2cc(-c3ccc(F)cn3)oc2ccn1-c1ccc2c(cnn2CCN2CCCC2)c1 (as salt: hydrochloride) [Example 23, 2-(5-Fluoropyridin-2-yl)-5-(1-(2-(pyrrolidin-1-yl)ethyl)-1H-indazol-5-yl)furo[3,2-c]pyridin-4(5H)-one dihydrochloride]
258 to 260 °C | Cl.O=c1c2cc(-c3ccc(Cl)cc3Cl)oc2ccn1-c1ccc2c(cnn2CCN2CCCC2)c1
242 to 246 °C (dec.) | Cl.O=c1c2cc(-c3ccc(Cl)cc3)oc2ccn1-c1ccc2c(cnn2CCN2CC[C@@H](O)C2)c1
268 to 270 °C | Cc1ccc(-c2cc3c(=O)n(-c4ccc5c(cnn5CCN5CCCC5)c4)ccc3o2)c(F)c1.Cl
140 to 142 °C | Cl.O=c1c2cc(-c3ccc(F)cc3Cl)oc2ccn1-c1ccc2c(cnn2CCN2CCCC2)c1
240 to 242 °C | COc1cc(Cl)ccc1-c1cc2c(=O)n(-c3ccc4c(cnn4CCN4CCCC4)c3)ccc2o1.Cl
282 to 284 °C | Cc1ccc(-c2cc3c(=O)n(-c4ccc5c(cnn5CCN5CCCC5)c4)ccc3o2)nn1.Cl
298 to 300 °C (dec.) | Cl.O=c1c2cc(-c3ccc(Cl)cc3)oc2ccn1-c1ccc2c(cnn2CCN2CCNCC2)c1
256 to 258 °C | Cl.O=c1c2cc(-c3ccc(Cl)cc3F)oc2ccn1-c1ccc2c(cnn2CCN2CCCC2)c1
272 to 274 °C | O=c1c2cc(-c3ncccn3)oc2ccn1-c1ccc2c(cnn2CCN2CCCC2)c1 (as salt: hydrochloride) [Example 26, 2-(Pyrimidin-2-yl)-5-(1-(2-(pyrrolidin-1-yl)ethyl)-1H-indazol-5-yl)furo[3,2-c]pyridin-4(5H)-one Dihydrochloride]
252 to 254 °C | Cl.O=c1c2cc(-c3ccc(C(F)(F)F)cc3)oc2ccn1-c1ccc2c(cnn2CCN2CCCC2)c1
264 to 266 °C | Cl.O=c1c2cc(-c3ccccc3F)oc2ccn1-c1ccc2c(cnn2CCN2CCCC2)c1
218 to 220 °C | Cl.O=c1c2cc(-c3ccc(F)cc3)oc2ccn1-c1ccc2c(cnn2CCN2CCCC2)c1
268 to 270 °C | O=c1c2cc(-c3ccc(Cl)cn3)oc2ccn1-c1ccc2c(cnn2CCN2CCCC2)c1 (as salt: hydrochloride) [Example 17, 2-(5-Chloropyridin-2-yl)-5-(1-(2-(pyrrolidin-1-yl)ethyl)-1H-indazol-5-yl)furo[3,2-c]pyridin-4(5H)-one dihydrochloride]
102 to 104 °C | Cl.O=c1c2cc(-c3ccccc3Cl)oc2ccn1-c1ccc2c(cnn2CCN2CCCC2)c1
50 to 52 °C | O=c1c2cc(-c3ccccn3)oc2ccn1-c1ccc2c(cnn2CCN2CCCC2)c1 (as salt: hydrochloride)
262 to 264 °C | Cc1ccc(-c2cc3c(=O)n(-c4ccc5c(cnn5CCN5CCCC5)c4)ccc3o2)cc1.Cl
260 to 268 °C (dec.) | Cl.O=c1c2cc(-c3ccc(Cl)cc3)oc2ccn1-c1ccc2c(cnn2CCN2CCOCC2)c1

— US8101632B2, “5-furopyridinone substituted indazoles” (Albany Molecular Research, Inc., priority 2007, dated 2012)
